From patent US20080200507A1, “Crystalline Non-Solvated Methanesulfonic Acid Salt of 1-(4-(2-Piperidinylethoxy)Phenoxy)-2-(3-Hydroxyphenyl)-6-Hydroxynaphthalene” (priority 2005, published 2008)
Counter-ions that a name gives are not always drawn.

What was measured:
[1] = target: endogenous ER receptors in Ishikawa human endometrial tumor cells (Homo sapiens, UniProt P03372); assay: Ishikawa Cell Proliferation Assay (alkaline phosphatase endpoint), agonist and antagonist mode; type: cell-based; details: read-out: agonist response (percentage efficacy versus tamoxifen)
Description: Ishikawa Cell Proliferation Assay:
This assay measures cell proliferation in both an agonist mode in the presence of a salt of the present invention alone, and in an antagonist mode in which the ability of a salt of the present invention to block estradiol stimulation of growth is measured. This assay utilizes Ishikawa human endometrial tumor cells and measures agonist and antagonist effects on endogenous ER receptors via an alkaline phosphatase endpoint (Littlefield et al., Endocrinology, 127:2757-2762, 1990). Alkaline phosphatase activity is measured as an endpoint for relative estrogenic stimuli in both an agonist mode and antagonist mode, where the ability of a test compound to block estradiol stimulatory activity is measured (Bramlett, K S, Burris, J., Steroid Biochem. Molec. Biol., 86:27-34, 2003). […]
The plates are dried for 5 minutes and frozen at −70° C. for at least 1 hour. […] After a twenty minute incubation, plates are read on a spectrophotometer at 405 nm. […] For the agonist mode, a percentage efficacy for the test compound is calculated versus the response to 100 nM tamoxifen alkaline phosphatase stimulation as: 100×(test compound-control)/(tamoxifen-control). For the antagonist mode, a percentage efficacy for the test compound is calculated versus E2 (1 nM) alone as: 100×(E2-test compound)/(E2-control).

[2] = test system: estrogen-induced response (uterine weight/body weight ratio) in female Sprague Dawley (SD) rats; assay: 3-Day Rat Uterine Antagonist; type: in vivo; details: 72 h, oral, 3 days, with EE 0.1 mg/kg, two assays, same value on both occasions, read-out: ED50 (inhibition of estrogen-induced uterine weight response)
Description: 3-Day Rat Uterine Antagonist
Female Sprague Dawley (SD) rats, 6 per group and 19 to 21 days of age, are orally treated with ethinyl estradiol (EE; 0.1 mg/kg) and 10, 1, 0.1, or 0.01 mg/kg test compound for 3 days. Test compound is dissolved in 20% w/v β-hydroxycyclodextrin in water and administered by oral gavage in a volume of 0.2 mL daily (15 minutes prior to the EE gavage). Groups of 6 rats are also given vehicle as a negative control and EE alone as a positive control. The animals are fasted overnight following the final dose. On the following morning, the animals are weighed and then euthanized (by carbon dioxide asphyxiation) and the uteri are rapidly collected (via a midline ventral incision), stripped of adipose tissue, removed luminal fluid by blotting onto absorbant paper, and weighed.
Uterine weight/body weight ratios (UWR) are calculated for each animal. The percentage inhibition of the estrogen-induced response is then calculated by the following formula: percent inhibition=100×(UWREE−UWRtest compound/UWREE−UWRcontrol). ED50 values are derived from a semi-log regression analysis of the linear aspect of the dose response curve.

[3] = test system: ovariectomized SD female rats (uterine wet weight, BMC, BMD); assay: 8-Week Mature OVX Rat Uterine and Bone Effects; type: in vivo
Description: 8-Week Mature OVX Rat Uterine and Bone Effects
Virgin 6-month-old, SD female rats (Harlan, Ind.) weighing about 270 g are randomized to treatment groups and bilateral ovariectomies are performed using isoflurane anesthesia. Treatment is initiated 3 days after ovariectomy. Groups are orally dosed each day for 8 weeks with GS II mesylate in a vehicle of 20% hydroxypropyl-β-cyclodextrin (Aldrich Chemical Co., Milwaukee, Wis.). Vertebrae and femora are excised at necropsy and the mid-transverse section of the lumbar vertebra L-4 and distal femur metaphysis is scanned in 50% ethanol/saline, using quantitative computed tomography (QCT) (Research M, Norland/Stratec, Pt. Atkinson, Wis.). Cross-sectional area (X-Area), bone mineral content (BMC, mg), and volumetric BMD (vBMD, mg/cm^3) are quantitated, using voxel dimensions of 148×148×500 μm as previously described (Sato M., Bone, 17:157S-162S, 1995). Bone measurements are carried out by computed tomography (CT) scans on the distal femur metaphysis (cancelous bone measurement) and the […] lumbar vertebrae (Sato, 1995 and Sato, et al., J. Med. Chem., 42:1-24, 1999).

[4] = Salt forms administered to monkeys, blood levels of GS II and its conjugates; type: in vivo; details: compared among crystalline acetate, mesylate, lactate and phosphate salts, methanesulfonate
Description: Four of these salts (the crystalline acetate, mesylate, lactate and phosphate salts of GS II) were administered to monkeys and blood levels of GS II and its conjugates were measured. […] Some additional physical properties of crystalline non-solvated GS II mesylate are disclosed below in Table 1.

[5] = Thermogravimetric analysis (volatiles / weight loss); type: physicochemical; details: 25 to 216° C.
[6] = Moisture adsorption / hygroscopicity; type: physicochemical
[7] = In situ salt screening, aqueous in situ solubility; type: physicochemical; details: crystalline salts
Text: In general, as aqueous solubility increases, the potential for absorption of the drug in the gut (and ultimate bioavailability) increases as well. Higher bioavailability can result in lower variability in clinical exposure and thus give the physician an advantage in correctly dosing-the patient within the therapeutic window. Using the aqueous in situ solubility as a guide, and the robustness of the same crystalline form isolated via automation, the crystalline mesylate, lactate, tartrate and phosphate salts of GS II were identified as candidates for further evaluation. Separately, the crystalline acetate salt of GS II was identified and also further characterized.

[8] = dose as low as 0.01 mg/kg, 8 weeks (distal femur metaphysis)

endogenous ER receptors in Ishikawa human endometrial tumor cells, sequence (P03372 whole entry): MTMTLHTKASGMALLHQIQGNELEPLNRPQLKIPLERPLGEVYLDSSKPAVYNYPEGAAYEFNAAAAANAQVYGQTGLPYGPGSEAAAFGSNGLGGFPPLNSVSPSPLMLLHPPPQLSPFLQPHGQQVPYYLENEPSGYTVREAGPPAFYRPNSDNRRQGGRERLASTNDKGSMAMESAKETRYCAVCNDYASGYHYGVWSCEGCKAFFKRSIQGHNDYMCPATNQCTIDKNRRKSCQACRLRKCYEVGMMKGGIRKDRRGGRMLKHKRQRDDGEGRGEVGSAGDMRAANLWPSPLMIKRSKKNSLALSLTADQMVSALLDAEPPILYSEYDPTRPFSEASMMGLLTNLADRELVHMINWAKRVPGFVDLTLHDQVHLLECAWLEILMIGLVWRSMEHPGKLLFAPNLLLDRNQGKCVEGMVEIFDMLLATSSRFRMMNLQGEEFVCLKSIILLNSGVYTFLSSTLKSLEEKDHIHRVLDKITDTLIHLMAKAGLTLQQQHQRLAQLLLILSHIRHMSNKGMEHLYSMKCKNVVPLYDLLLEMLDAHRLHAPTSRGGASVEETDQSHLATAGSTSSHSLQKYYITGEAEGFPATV

Q: With `Oc1cccc(-c2ccc3cc(O)ccc3c2Oc2ccc(OCCN3CCCCC3)cc2)c1` [crystalline non-solvated GS II mesylate, 1-(4-(2-piperidinylethoxy)phenoxy)-2-(3-hydroxyphenyl)-6-hydroxynaphthalene, methanesulfonate] as the compound, how does the Emax [1] read?
A: 13.8%

Q: And the ED50 [2]?
A: 0.22 mg/kg

Q: What about the “BMC changes in the vertebrae” value ([3]; 8 weeks, lumbar vertebra) of the same compound?
A: statistical significance for BMC changes were not achieved

Q: What about the “BMD preservation in the vertebrae” value ([3]; 8 weeks, lumbar vertebra) of the same compound?
A: BMD preservation was also seen

Q: What about the “uterine stimulation over OVX control” value ([3]; 10-mg/kg dose, 8 weeks, in comparison to ovary intact (sham operated) rats) of the same compound?
A: 8.7%

Q: What about the “preservation of BMC” value [3, 8] of the same compound?
A: significant preservation

Q: What about the “preservation of BMD” value [3, 8] of the same compound?
A: significant preservation

Q: And the “Changes in uterine wet weight” value ([3]; oral daily, after 8 weeks of treatment)?
A: minimal

Q: What about the “in vivo exposure of GS II (ng hr/ml of GS II and of its conjugates)” value ([4]; listed as crystalline mesylate salt) of the same compound?
A: largest in vivo exposure

Q: And the “in vivo exposure of GS II (ng hr/ml of GS II and of its conjugates)” value [4]?
A: significant in vivo exposure

Q: And the “% Volatiles (Thermo Gravimetric Analysis)” value [5]?
A: <1% (25 to 216° C.)

Q: What about the hygroscopicity [6] of the same compound?
A: non-hygroscopic

Q: And the “% Moisture Adsorbed @80% RH” value ([6]; 80% RH)?
A: <1%

Q: For fumarate, which “in situ aqueous solubility” value [7] is on record?
A: relatively low

Q: With tosylate as the compound, how does the “in situ aqueous solubility” value [7] read?
A: relatively low
